In patent US6121463A, “Alkyl-4-silylheterocyclic phenols and thiophenols useful as antioxidant agents” (priority 1998, dated 2000):

What was measured:
[1] = tested on: oxidation of serum lipids; test: Thiobarbituric acid reactive substances (TBARS) assay in serum of treated rats; format: in vivo, Sprague-Dawley rat; settings: 0.3% diet, 4 days, male rats, N=5; CuSO4 oxidation of serum, 37° C., 3 hr
From the text: A typical experiment consists of 4-6 groups of rats (N=5 per group) with 1 group being a control which receives no MDL compound and the other groups being treated with 0.3% MDL compound. Some of the compounds are either repeated at 0.3% or evaluated again at the lower dose of 0.1%. House Male Sprague-Dawley rats, 50-100 g, (Harlan Laboratories, Indianapolis, Ind.) in groups of 5, feeding ad libitum water and Purina Rodent chow (#5002) with or without MDL compound as a dietary admixture for 4 days. Make dietary admixtures (0.3%) by mixing 1.2 grams of an MDL compound with 400 grams of Purina rodent chow (#5002). Mix the MDL compound with approximately 50 grams of food using a mortar and pestle. This is added to the remainder of the food and mixed for 3 hours on a rotary mixer. In the morning of day 5, anesthetize non-fasted rats with carbon dioxide, and collect blood by cardiac puncture. […] Deaths are recorded as mortality. […]
In this assay the oxidation of serum lipids is initiated with CuSO4, resulting in the formation of aldehydes, such as malondialdehyde (MDA). Upon incubation with thiobarbituric acid, the absorbance of the aldehydes can be detected at 530-540 nm. […] Measure absorbances at 540 nm using a Biotek model EL311 microplate reader. The nmoles of MDA produced are calculated from a standard curve of 0 to 10 nmoles of MDA prepared from malonaldehyde bis(dimethylacetal). […]

[2] = Serum clinical chemistries in male Sprague-Dawley rats after dietary admixture; format: in vivo, Sprague-Dawley rat; settings: 0.3% diet, 4 days, N=5
From the text: (§1) A typical experiment consists of 4-6 groups of rats (N=5 per group) with 1 group being a control which receives no MDL compound and the other groups being treated with 0.3% MDL compound. Some of the compounds are either repeated at 0.3% or evaluated again at the lower dose of 0.1%. House Male Sprague-Dawley rats, 50-100 g, (Harlan Laboratories, Indianapolis, Ind.) in groups of 5, feeding ad libitum water and Purina Rodent chow (#5002) with or without MDL compound as a dietary admixture for 4 days. Make dietary admixtures (0.3%) by mixing 1.2 grams of an MDL compound with 400 grams of Purina rodent chow (#5002). Mix the MDL compound with approximately 50 grams of food using a mortar and pestle. This is added to the remainder of the food and mixed for 3 hours on a rotary mixer. In the morning of day 5, anesthetize non-fasted rats with carbon dioxide, and collect blood by cardiac puncture. Sacrifice rats by cervical dislocation. Record body weights and liver weights in grams. Record food consumption as grams.cndot.day^-1 .cndot.rat^-1. Deaths are recorded as mortality. Use aliquots of fresh serum for clinical chemistries, thiobarbituric acid reactive substances (TBARS) and conjugated diene measurements. Freeze aliquots of serum (~0.5mL) and whole livers at -20° C. for compound and metabolite concentration determination at a later time.
Allow blood to clot at room temperature for 30 minutes. Obtain serum after centrifugation for 10 min at 4° C. at 3000 rpm in a Beckman J-6M/E centrifuge with a JS-4.2 rotor. Analyze fresh serum by a COBAS MIRA S autoanalyzer (Roche Diagnostics) using Roche diagnostic reagents for the following clinical chemistry measurements: alkaline phosphatase (ALP, kit #44553), alanine transaminase (ALT, kit #42375), aspartate aminotransferase (AST, kit #42381), total cholesterol (CHOL, kit #44334), triglyceride (TG, kit #44120), and glucose (GLU, kit #44558). Calculate ALP, ALT, and AST as units/L. Calculate cholesterol, triglycerides, and glucose as mg/dL.

[3] = Animal parameters in male Sprague-Dawley rats; format: in vivo, Sprague-Dawley rat; settings: 0.3% diet, 4 days; for body wt. as a percent of control / food (grams eaten per day per rat) as a percent of control / lw/bw (liver weight/body weight) as a percent of control: N=5; for mortality at 96 h: rat, in vivo, po, N=5, read-out: mortality (deaths per group)
From the text: as §1

[4] = tested on: ICAM-1; settings: vascular endothelial cells; Mauri, N. et al.; cited from earlier work
[5] = tested on: oxidation of lipids; test: Conjugated diene determination (lag phase) in pooled serum of treated rats; format: in vivo, Sprague-Dawley rat; settings: 0.3% diet, 4 days; mean of 2 determinations of pooled samples, N=5; control = 61 min.
From the text: A typical experiment consists of 4-6 groups of rats (N=5 per group) with 1 group being a control which receives no MDL compound and the other groups being treated with 0.3% MDL compound. Some of the compounds are either repeated at 0.3% or evaluated again at the lower dose of 0.1%. House Male Sprague-Dawley rats, 50-100 g, (Harlan Laboratories, Indianapolis, Ind.) in groups of 5, feeding ad libitum water and Purina Rodent chow (#5002) with or without MDL compound as a dietary admixture for 4 days. Make dietary admixtures (0.3%) by mixing 1.2 grams of an MDL compound with 400 grams of Purina rodent chow (#5002). Mix the MDL compound with approximately 50 grams of food using a mortar and pestle. This is added to the remainder of the food and mixed for 3 hours on a rotary mixer. In the morning of day 5, anesthetize non-fasted rats with carbon dioxide, and collect blood by cardiac puncture. Sacrifice rats by cervical dislocation. Record body weights and liver weights in grams. Record food consumption as grams.cndot.day^-1 .cndot.rat^-1. Deaths are recorded as mortality. […]
Conjugated diene lag phase is another indicator of the oxidation of lipids. […] Measure the absorbances of all cuvettes and set the instrument baseline to zero using the lowest absorbing sample. […] Record the absorbance of each cuvette at 2 min intervals for a period of 840 min. […]

SMILES	TBARS (thiobarbituric acid reactive substances) as a percent of control [1]	ALP (alkaline phosphatase) as a percent of control [2]	ALT (alanine aminotransferase) as a percent of control [2]	AST (aspartate aminotransferase) as a percent of control [2]	CHOL (total cholesterol) as a percent of control [2]	GLUC (glucose) as a percent of control [2]	TRIG (triglycerides) as a percent of control [2]	body wt. as a percent of control [3]	food (grams eaten per day per rat) as a percent of control [3]	lw/bw (liver weight/body weight) as a percent of control [3]	mortality at 96 h [3]	inhibition of cytokine-induced expression of ICAM-1 [4]	CONJ. DIENE (conjugated diene lag phase) [5]
CC(C)(C)c1cc(OC[Si](C)(C)c2ccco2)cc(C(C)(C)C)c1O [106,939]	64%	123%	92%	106%	120%	83%	108%	92%	88%	130%	0%		
S=C(S)N1CCCC1 [pyrollidine dithiocarbamate]												but not ICAM-1	
CC(=O)N[C@@H](CS)C(=O)O [N-acetylcysteine]												but not ICAM-1	
CC(C)(C)c1cc(OC[Si](C)(C)c2cccs2)cc(C(C)(C)C)c1O [107,965]	57%	137%	96%	89%	121%	86%	90%	84%	84%	118%	0%		273 min
